Data on 7 molecules can be found in patent publication US8445407B2, “Herbicidal tetrahydrophthalimides” (BASF SE, priority 2009, dated 2013).

One assay deals with BRAPL. In words: greenhouse post-emergence herbicidal activity. It counts as in vivo, Brachiaria plantaginea. The following applies: scale 0 to 100. The source says: (§1) The culture containers used were plastic flowerpots containing loamy sand with approximately 3.0% of humus as the substrate. The seeds of the test plants were sown separately for each species.
(§2) For the post-emergence treatment, the test plants were first grown to a height of 3 to 15 cm, depending on the plant habit, and only then treated with the active ingredients which had been suspended or emulsified in water. For this purpose, the test plants were either sown directly and grown in the same containers, or they were first grown separately as seedlings and transplanted into the test containers a few days prior to treatment.
(§3) Depending on the species, the plants were kept at 10-25° C. or 20-35° C. The test period extended over 2 to 4 weeks. During this time, the plants were tended, and their response to the individual treatments was evaluated.
(§4) Evaluation was carried out using a scale from 0 to 100. 100 means no emergence of the plants, or complete destruction of at least the aerial moieties, and 0 means no damage, or normal course of growth. A good herbicidal activity is given at values of at least 70 and a very good herbicidal activity is given at values of at least 85.

Another assay relates to DIGSA. Nature of the assay: greenhouse post-emergence herbicidal activity. Conditions: scale 0 to 100. Format: in vivo, Digitaria sanguinales.
Description: as §1, §2, §3, §4

The subject of another assay is PANDI. In words: greenhouse pre-emergence herbicidal activity. Format: in vivo, Panicum dichotomiflorun. The following applies: scale 0 to 100.
Description: as §1
(§5) For the pre-emergence treatment, the active ingredients, which had been suspended or emulsified in water, were applied directly after sowing by means of finely distributing nozzles. The containers were irrigated gently to promote germination and growth and subsequently covered with transparent plastic hoods until the plants had rooted. This cover caused uniform germination of the test plants, unless this has been impaired by the active ingredients.
as §3, §4

The next assay has as its system ABUTH. Nature of the assay: greenhouse pre-emergence herbicidal activity. It counts as in vivo, Abutilon theophrasti. Conditions: scale 0 to 100.
Description: as §1, §5, §3, §4

Assay [1] has as its system SETVI. In words: greenhouse post-emergence herbicidal activity. It counts as in vivo, Setaria viridis. The following applies: scale 0 to 100.
Description: as §1, §2, §3, §4

Another assay relates to SETFA. In words: greenhouse post-emergence herbicidal activity. Conditions: scale 0 to 100. Format: in vivo, Setaria faberi.
Description: as §1, §2, §3, §4

Another assay concerns ECHCG. Nature of the assay: greenhouse post-emergence herbicidal activity. Format: in vivo, Echinocloa crus-galli. The following applies: scale 0 to 100.
Description: as §1, §2, §3, §4

The test system of the next assay is STEME. Nature of the assay: greenhouse pre-emergence herbicidal activity. Format: in vivo, Stellaria media. Conditions: scale 0 to 100.
Description: as §1, §5, §3, §4

Assay [2] deals with SETVI. In words: greenhouse pre-emergence herbicidal activity. Format: in vivo, Setaria viridis. The following applies: scale 0 to 100.
Description: as §1, §5, §3, §4

A further assay deals with LAMAM. In words: greenhouse pre-emergence herbicidal activity. Format: in vivo, Lamium amplexicaule. Conditions: scale 0 to 100.
Description: as §1, §5, §3, §4

A further assay concerns Ambrosia elatior. In words: greenhouse post-emergence herbicidal activity. Format: in vivo. The following applies: 6.25 g/ha, post-emergence method.
Description: as §1, §2, §3, §4

The next assay concerns Chenopodium album. In words: greenhouse post-emergence herbicidal activity. Conditions: 6.25 g/ha, post-emergence method. Format: in vivo.
Description: as §1, §2, §3, §4

The test system of a further assay is Pharbitis purpurea. In words: greenhouse post-emergence herbicidal activity. Conditions: 6.25 g/ha, post-emergence method. It counts as in vivo.
Description: as §1, §2, §3, §4

The next assay relates to Abutilon theophrasti. Nature of the assay: greenhouse post-emergence herbicidal activity. It counts as in vivo. The following applies: 6.25 g/ha, post-emergence method.
Description: as §1, §2, §3, §4

The test system of a further assay is Erigeron canadensis. Nature of the assay: greenhouse pre-emergence herbicidal activity. Format: in vivo. Conditions: 6.25 g/ha, pre-emergence method.
Description: as §1, §5, §3, §4

Another assay concerns Amaranthus retroflexus. Nature of the assay: greenhouse pre-emergence herbicidal activity. Conditions: 6.25 g/ha, pre-emergence method. Format: in vivo.
Description: as §1, §5, §3, §4

Consider `Cc1cnc(C2=NC(=O)C(C)(C(C)C)N2)c(C(=O)O)c1` (stereo not drawn) [B.30, imazapic, reference compound], for which the “herbicidal activity against BRAPL found” value in the assay on BRAPL (B.30 10 g/ha a.s.) was found to be 70. Further, the “herbicidal activity against DIGSA found” value in the assay on DIGSA (B.30 10 g/ha a.s.) stood at 85.
In the case of `CC(C)N(C)S(=O)(=O)NC(=O)c1cc(-n2c(=O)cc(C(F)(F)F)n(C)c2=O)c(F)cc1Cl` [B.76, saflufenacil, reference compound], in the assay on PANDI (B.76 6.25 g/ha a.s.), the “herbicidal activity against PANDI found” value is 55. Also, in the assay on ABUTH (B.76 6.25 g/ha a.s.), the “herbicidal activity against ABUTH found” value is listed as 75. Moreover, in the assay on SETVI [1] (B.76 12.5 g/ha a.s.), the “herbicidal activity against SETVI found” value came to 40. In the assay on SETFA (B.76 12.5 g/ha a.s.), the “herbicidal activity against SETFA found” value is 30.
As to `CC(C)N.O=C(O)CNCP(=O)(O)O` [B.97, glyphosate-isopropylammonium, reference compound], the “herbicidal activity against ECHCG found” value in the assay on ECHCG (B.97 135 g/ha a.s.) was found to be 85.
Turning to `CCC(CC)Nc1c([N+](=O)[O-])cc(C)c(C)c1[N+](=O)[O-]` [B.102, pendimethalin, reference compound], the “herbicidal activity against STEME found” value in the assay on STEME (B.102 400 g/ha a.s.) was 75.
For `COC[C@H](C)N(C(=O)CCl)c1c(C)csc1C` [B.107, dimethenamid-P, reference compound], the “herbicidal activity against SETVI found” value with SETVI [2] (B.107 15 g/ha a.s.) is 70. Also, the “herbicidal activity against PANDI found” value in the assay on PANDI (B.107 15 g/ha a.s.) came out at 95.
Regarding `Cn1nc(C(F)(F)F)c(CS(=O)(=O)C2=NOC(C)(C)C2)c1OC(F)F` [B.117, pyroxasulfone, reference compound], in the assay on STEME (B.117 6.25 g/ha a.s.), the “herbicidal activity against STEME found” value worked out at 60. In the assay on LAMAM (B.117 6.25 g/ha a.s.), the “herbicidal activity against LAMAM found” value came to 35.
Regarding `C#CCN1C(=O)C(F)(F)Oc2cc(F)c(N3C(=O)C4=C(CCCC4)C3=O)cc21` [Ia18, 2-(2,2,7-Trifluoro-3-oxo-4-prop-2-ynyl-3,4-dihydro-2H-benzo[1,4]oxazin-6-yl)-4,5,6,7-tetrahydro-isoindole-1,3-dione], the “herbicidal activity against SETVI found” value came out at 90 in the assay on SETVI [2] (Ia18 25 g/ha a.s.) and 55 with SETVI [1] (Ia18 6.25 g/ha a.s.). Also, the “herbicidal activity against Ambrosia elatior” value in the assay on Ambrosia elatior is reported as “very good herbicidal activity (a very good herbicidal activity is given at values of at least 85)”. Further, the “herbicidal activity against Chenopodium album” value in the assay on Chenopodium album is recorded as “very good herbicidal activity (a very good herbicidal activity is given at values of at least 85)”. The “herbicidal activity against Pharbitis purpurea” value in the assay on Pharbitis purpurea is “very good herbicidal activity (a very good herbicidal activity is given at values of at least 85)”. The “herbicidal activity against Abutilon theophrasti” value in the assay on Abutilon theophrasti is reported as “very good herbicidal activity (a very good herbicidal activity is given at values of at least 85)”. In addition, the “herbicidal activity against BRAPL found” value in the assay on BRAPL (Ia18 6.25 g/ha a.s.) was 25. The “herbicidal activity against PANDI found” value with PANDI (Ia18 12.5 g/ha a.s.) came out at 70; with PANDI (Ia18 25 g/ha a.s.) it was 95. The “herbicidal activity against STEME found” value with STEME (Ia18 12.5 g/ha a.s.) and in the assay on STEME (Ia18 13 g/ha a.s.) was 65 throughout. For the same molecule, in the assay with ABUTH (Ia18 12.5 g/ha a.s.), the “herbicidal activity against ABUTH found” value came out at 55. Moreover, in the assay on DIGSA (Ia18 6.25 g/ha a.s.), the “herbicidal activity against DIGSA found” value was found to be 20. Moreover, in the assay on Erigeron canadensis, the “herbicidal activity against Erigeron canadensis” value is reported as “very good herbicidal activity (a very good herbicidal activity is given at values of at least 85)”. Moreover, the “herbicidal activity against Amaranthus retroflexus” value in the assay on Amaranthus retroflexus is given as “very good herbicidal activity (a very good herbicidal activity is given at values of at least 85)”. Also, in the assay on LAMAM (Ia18 12.5 g/ha a.s.), the “herbicidal activity against LAMAM found” value amounted to 80. The “herbicidal activity against ECHCG found” value in the assay on ECHCG (Ia18 6.25 g/ha a.s.) is 30. Moreover, the “herbicidal activity against SETFA found” value with SETFA (Ia18 6.25 g/ha a.s.) stood at 70.
